Data as given in patent US20230241071A1, “COMBINATION TREATMENT OF LIVER DISORDERS” (Terns Pharmaceuticals, Inc., priority 2021, published 2023).
Where two headings read alike, the source gives them in different places. Marks after values point to notes of the source that are not given here.

How the values were obtained:
[1] = Single-ascending dose trial of Compound 2 in healthy participants: safety and PK; type: in vivo, human; conditions: for half-life / AUC(0-inf) / Cmax / Tmax: human, plasma, oral; for AUC(0-inf) / Cmax: mean; for fe, fraction of dose excreted in urine as unmodified compound 2: mean (% CV)
Protocol: A single-ascending dose clinical trial of Compound 2 (potassium salt) was performed.
Compound 2 plasma and urine concentrations were determined using validated liquid chromatography-tandem mass spectrometry assay
Urine samples for Compound 2 concentration and PK sampling were collected pre-dose and at the following timepoints: 0-6 hours, 6-12 hours, 12-24 hours, and 24-48 hours. PK parameters were estimated via noncompartmental methods using Phoenix® WinNonlin® (Certara, LP, Princeton, N.J.). Concentrations of serum pharmacodynamic (PD) biomarkers apolipoprotein B (Apo B) and sex hormone binding globulin (SHBG) were measured using an immunoassay and serum lipids were determined using spectrophotometry.

[2] = Multiple-ascending dose trial of Compound 2 in healthy participants; type: in vivo, human; conditions: for Cmax / AUC / half-life: human, plasma, oral; for AUC: read-out: AUCtau (mean); for half-life: read-out: t1/2 (median) (converted)
Protocol: A multiple-ascending dose clinical trial of Compound 2 was performed.
Compound 2 plasma and urine concentrations were determined using validated liquid chromatography-tandem mass spectrometry assay.
Plasma samples for Compound 2 concentration and PK sampling were collected pre-dose and at 0.5, 1, 2, 3, 4, 6, 8, 12, and 24 hours after the first dose, at pre-dose on Days 3, 4, 5, 8, 11, and 13 of dosing, and at pre-dose and at 0.5, 1, 2, 3, 4, 6, 8, 12, 24, 48, and 72 hours after 14 days of administration of study medication (placebo or compound). (See Table 16, FIG. 17) PK parameters were estimated via noncompartmental methods using Phoenix® WinNonlin® (Certara, LP, Princeton, N.J.). Concentrations of serum pharmacodynamic (PD) biomarkers apolipoprotein B (Apo B) and sex hormone binding globulin (SHBG) were measured using an immunoassay and serum lipids were determined using spectrophotometry.
PD sampling was also performed. Percent change from baseline for PD markers were calculated using an ANCOVA model with percent change from baseline as dependent variable, treatment group as fixed effect, and baseline as covariate. Analyses used observed data only without imputation for missing data.

[3] = single dose 3 mg, fasted (n = 6)
[4] = single dose 10 mg, fasted (n = 6)
[5] = single dose 30 mg, fasted (n = 6)
[6] = single dose 60 mg, fasted (n = 6)

## N#Cc1nn(-c2cc(Cl)c(Oc3n[nH]c(=O)c4ccccc34)c(Cl)c2)c(=O)[nH]c1=O [Compound 2, 2-(3,5-dichloro-4-((4-oxo-3,4-dihydrophthalazin-1-yl)oxy)phenyl)-3,5-dioxo-2,3,4,5-tetrahydro-1,2,4-triazine-6-carbonitrile]
[1]; 24 hours after single dose
  heart rates: remained stable and within the normal range
[1]; all single doses
  renal excretion: Minimal renal excretion
[1]; 3 mg, single dose 3 mg, fasted (n = 6), median (min-max), read-out: t1/2 (converted)
  half-life: 1040 min
[1]; 10 mg, single dose 10 mg, fasted (n = 6), median (min-max), read-out: t1/2 (converted)
  half-life: 864 min
[1]; 30 mg, single dose 30 mg, fasted (n = 6), median (min-max), read-out: t1/2 (converted)
  half-life: 942 min
[1]; 60 mg, single dose 60 mg, fasted (n = 6), median (min-max), read-out: t1/2 (converted)
  half-life: 828 min
[1]; single dose 3-60 mg, read-out: half-life (median) across single dose levels
  half-life: 828 to 1040 min
[1]; [3]
  AUC(0-inf): 4060 ng·h/mL
  Cmax: 217 ng/mL
  fe, fraction of dose excreted in urine as unmodified compound 2: 2.95 (62) % dose, urine
[1]; single dose 3 mg, fasted (n = 6), median (min-max)
  Tmax: 4 h
[1]; [4]
  AUC(0-inf): 8110 ng·h/mL
  Cmax: 614 ng/mL
  fe, fraction of dose excreted in urine as unmodified compound 2: 2.05 (74) % dose, urine
[1]; single dose 10 mg, fasted (n = 6), median (min-max)
  Tmax: 4 h
[1]; [5]
  AUC(0-inf): 33000 ng·h/mL
  Cmax: 1800 ng/mL
  fe, fraction of dose excreted in urine as unmodified compound 2: 1.78 (35) % dose, urine
[1]; single dose 30 mg, fasted (n = 6), median (min-max)
  Tmax: 4 h
[1]; [6]
  AUC(0-inf): 50000 ng·h/mL
  Cmax: 3300 ng/mL
  fe, fraction of dose excreted in urine as unmodified compound 2: 1.53 (53) % dose, urine
[1]; single dose 60 mg, fasted (n = 6), median (min-max)
  Tmax: 4 h
[1]; single ascending doses up to 60 mg
  overall safety and tolerability: safe and well-tolerated
[1]; single dose 3 mg (n = 6)
  AEs by relationship to drug: Not related: 2 (33.3%)
  AEs by relationship to drug: Possibly related: 0
  AEs by relationship to drug: Related: 0
  AEs by relationship to drug: Unlikely related: 0
  Any AE, all CTCAE grades: 2 (33.3%)
  CTCAE Grade 1 AEs: 0
  CTCAE Grade 2 AEs: 0
  CTCAE Grade 3 or higher AEs: 0
  Serious AEs: 0
[1]; single dose 10 mg (n = 6)
  AEs by relationship to drug: Not related: 0
  AEs by relationship to drug: Possibly related: 0
  AEs by relationship to drug: Related: 0
  AEs by relationship to drug: Unlikely related: 0
  Any AE, all CTCAE grades: 0
  CTCAE Grade 1 AEs: 0
  CTCAE Grade 2 AEs: 0
  CTCAE Grade 3 or higher AEs: 0
  Serious AEs: 0
[1]; single dose 30 mg (n = 6)
  AEs by relationship to drug: Not related: 1 (16.7%)
  AEs by relationship to drug: Possibly related: 1 (16.7%)*
  AEs by relationship to drug: Related: 0
  AEs by relationship to drug: Unlikely related: 0
  Any AE, all CTCAE grades: 2 (33.3%)
  CTCAE Grade 1 AEs: 1 (16.7%)
  CTCAE Grade 2 AEs: 1 (16.7%)
  CTCAE Grade 3 or higher AEs: 0
  Serious AEs: 0
[1]; single dose 60 mg (n = 6)
  AEs by relationship to drug: Not related: 0
  AEs by relationship to drug: Possibly related: 0
  AEs by relationship to drug: Related: 0
  AEs by relationship to drug: Unlikely related: 0
  Any AE, all CTCAE grades: 0
  CTCAE Grade 1 AEs: 0
  CTCAE Grade 2 AEs: 0
  CTCAE Grade 3 or higher AEs: 0
  Serious AEs: 0
[1]; single dose 3-60 mg
  TSH, free T3, and free T4 levels: remained within the normal range
  cardiac related AEs: No cardiac related AEs
  exposures (AUC, Cmax), dose proportionality: approximately dose-proportional
  half-life (median) across single dose levels: > 13 h
  severity of adverse events: mild or moderate
  subjects with increases in ALT more than 2-times greater than ULN: No subjects
[2]; 3 mg QD 14 days (N = 6)
  AEs by relationship to drug: Not related: 1 (16.7%) n (%)
  AEs by relationship to drug: Possibly related: 0 n (%)
  AEs by relationship to drug: Related: 0 n (%)
  AEs by relationship to drug: Unlikely related: 0 n (%)
  Subject incidence: Any AE, all CTCAE grades: 1 (16.7%) n (%)
  Subject incidence: Grade 1 AEs: 1 (16.7%) n (%)
  Subject incidence: Grade 2 or higher AEs: 0 n (%)
  Subject incidence: Serious AEs: 0 n (%)
[2]; 6 mg QD 14 days (N = 6)
  AEs by relationship to drug: Not related: 0 n (%)
  AEs by relationship to drug: Possibly related: 1 (16.7%) n (%)
  AEs by relationship to drug: Related: 0 n (%)
  AEs by relationship to drug: Unlikely related: 0 n (%)
  Subject incidence: Any AE, all CTCAE grades: 1 (16.7%) n (%)
  Subject incidence: Grade 1 AEs: 1 (16.7%) n (%)
  Subject incidence: Grade 2 or higher AEs: 0 n (%)
  Subject incidence: Serious AEs: 0 n (%)
[2]; 10 mg QD 14 days (N = 6)
  AEs by relationship to drug: Not related: 2 (33.3%) n (%)
  AEs by relationship to drug: Possibly related: 0 n (%)
  AEs by relationship to drug: Related: 0 n (%)
  AEs by relationship to drug: Unlikely related: 0 n (%)
  Subject incidence: Any AE, all CTCAE grades: 2 (33.3%) n (%)
  Subject incidence: Grade 1 AEs: 2 (33.3%) n (%)
  Subject incidence: Grade 2 or higher AEs: 0 n (%)
  Subject incidence: Serious AEs: 0 n (%)
[2]; Day 14, 1 mg QD
  Ctau (mean): 25.7 ng/mL
  Cmax: 80.3 ng/mL
  AUC: 1090 ng·h/mL
  half-life: 1170 min
[2]; Day 14, 3 mg QD
  Ctau (mean): 77.9 ng/mL
  Cmax: 291 ng/mL
  AUC: 3600 ng·h/mL
  half-life: 960 min
[2]; Day 14, 6 mg QD
  Ctau (mean): 175 ng/mL
  Cmax: 699 ng/mL
  AUC: 8310 ng·h/mL
  half-life: 948 min
[2]; Day 14, 10 mg QD
  Ctau (mean): 196 ng/mL
  Cmax: 996 ng/mL
  AUC: 10600 ng·h/mL
  half-life: 924 min
[2]; QD 14 days
  GGT: Dose-dependent GGT increases
  TSH or free T3: without clear change
  free T4: declined in dose-dependent fashion
  free testosterone levels: no significant change
  heart rate and blood pressure: remained stable
  mean ALT values: not significantly different from placebo
  oral bioavailability and PK variability: good oral bioavailability with low PK variability
  total testosterone: Dose-dependent total testosterone increases
[2]; QD 14 days, up to 10 mg
  safety and tolerability: well-tolerated
[2]; day 15
  HDL-c: did not significantly change
[2]; day 15, 10 mg dose cohort
  total cholesterol, LDL-c, Apo B, and triglycerides: significant reductions
[2]; multiple doses, even at 3 mg QD
  SHBG: significant and dose-dependent increases
